Results published in patent US11701382B2, “Treatment of post-operative joint pain with polysulfated polysaccharides” (PARADIGM BIOPHARMACEUTICALS LTD., priority 2018, dated 2023).

Legend:
Type in all cases: in vivo, human
[1] = system: patient with degenerative osteoarthritis in the left knee; assay: Numerical Rating Scale (NRS) pain score, left knee with degenerative osteoarthritis, patient treated with PPS; settings: left knee (degenerative OA); PPS 2 mg/kg SC twice weekly for 3 weeks (6 injections); 0-10 scale; before PPS 8
Source text: (§1) Example 1 is a study of the safety, tolerability and result of a patient treated with PPS suffering from degenerative osteoarthritis in the left knee with bone marrow edema lesions (BMEL), as assessed by magnetic resonance imaging (MRI), and from persistent pain following total right knee arthroplasty.
(§2) The patient had end stage osteroarthrtis (OA) in their right knee. They underwent a total knee replacement (TKR) in the right knee and had aseptic, persistent pain from that joint post replacement. They also had pain in their left knee (degenerative osteoarthritis) and was recommended to have a TKR in that joint.
(§3) They were treated with PPS. The treatment regimen consisted of administration of PPS, at a preferred dose of 2 mg/kg of body weight, twice weekly for three weeks by subcutaneous injection (total of six injections).
(§4) The protocol featured the following: • Treatment regimen: 2× weekly subcutaneous injections of PPS (preferred dose 2 mg/kg) for 3 weeks (total of 6 injections)
Numerical Rating Scale (NRS) is an 11-point scale (0-10). A state of no pain is 0 and the worst pain imaginable is 10.

[2] = system: patient with degenerative osteoarthritis in the left knee; assay: Lysholm Knee Score (knee function), left knee, patient treated with PPS; settings: left knee (degenerative OA); PPS 2 mg/kg SC twice weekly for 3 weeks; 0-100 scale; before PPS 58
Source text: as §1, §2, §3, §4
Lysholm Knee Score is a total score of 0-100 is calculated based on the results from the eight functional components of the Lysholm knee score scale: Limp (5 points), Support (5 points), Locking (15 points), Instability (25 points), Pain (25 points), Swelling (10 points), Stair climbing (10 points), and Squatting (5 points). […]

[3] = system: patient with degenerative osteoarthritis in the left knee with bone marrow edema lesions; assay: Bone marrow edema lesions (BMEL) assessed by MRI, left knee, patient treated with PPS
Source text: as §1, §2, §3, §4

[4] = system: patient with persistent pain following total right knee arthroplasty; assay: Aseptic, persistent post-operative pain in right artificial knee joint after total knee replacement, patient treated with PPS; settings: PPS 2 mg/kg SC twice weekly for 3 weeks
Source text: as §1, §2, §3, §4

[5] = system: patient with left knee osteoarthritis and persistent right knee pain following TKR; assay: Safety and tolerability (adverse events) of PPS under TGA SAS(B); settings: PPS 2 mg/kg SC twice weekly for 3 weeks, one patient
Experimental: as §1
The patient was treated with PPS under the TGA Special Access Scheme (B). (Approval to use PPS as treatment for the patient was acquired from Department of Health—Therapeutic Goods Administration, Australian Government under the Special Access Scheme (SAS) since the injectable form of PPS was not a registered product in Australia.)
as §3

## Pentosan polysulfate [PPS]
[1]
  After PPS/NRS Pain: 0
[2]
  After PPS/Lysholm Knee Score: 99
[3]; PPS 2 mg/kg SC twice weekly for 3 weeks
  BMEL reduction as assessed by magnetic resonance imaging: clearly visible BMEL reduction
[3]; after PPS, at baseline up to two thirds
  bone marrow edema stage, post-treatment MRI: negligible
[4]
  aseptic, persistent pain in the right artificial joint: zero
[5]
  adverse events: no adverse events were reported
